Reference: patent US8492440B2, “Difluorophenyldiacylhydrazide derivatives” (Merck Patent GmbH, priority 2008, dated 2013)
pIC50: −log10 of the molar value.

Assays:
[1] = molecular target: T1, SGK1 (Homo sapiens, UniProt O00141); assay: Cell assay: P-NDRG1 level in HeLa cells (western blot), intracellular SGK1 inhibition; assay type: cell-based; parameters: endogenous in cells; host or cells: HeLa; settings: decrease of NDRG1 phosphorylation, 24 hrs incubation
T1 sequence (O00141 1-431): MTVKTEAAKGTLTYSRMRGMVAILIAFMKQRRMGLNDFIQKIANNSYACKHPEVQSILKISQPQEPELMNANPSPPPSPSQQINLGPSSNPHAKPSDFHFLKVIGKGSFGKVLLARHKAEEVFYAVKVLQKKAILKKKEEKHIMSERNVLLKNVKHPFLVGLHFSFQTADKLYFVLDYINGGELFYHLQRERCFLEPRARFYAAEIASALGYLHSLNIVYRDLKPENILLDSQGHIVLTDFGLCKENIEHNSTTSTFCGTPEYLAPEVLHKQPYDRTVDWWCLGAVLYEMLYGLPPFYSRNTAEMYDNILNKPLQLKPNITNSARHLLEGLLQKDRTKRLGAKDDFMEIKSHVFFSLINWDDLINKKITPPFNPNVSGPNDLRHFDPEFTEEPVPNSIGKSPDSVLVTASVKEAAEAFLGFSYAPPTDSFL
Method: HeLa cells are plated out with a density of 10−20×10^3 cells/cm^2 in 6-well MTPs (Costar Corning, #3506) in DMEM medium, supplemented with 10% foetal calf serum (FCS), 2 mM glutamine and 1 mM sodium pyruvate. After 24 hrs. at 37° C. and with 5% CO2 in a cell incubator, each well is furthermore supplemented with 25 μl of a 100× DMSO solution of the compound; this solution is diluted 100-fold in the supernatant of the cell culture, which results in the expected SGK1 inhibitor concentration at a 1% DMSO concentration. The cells are incubated under the same conditions for a further 24 hrs.
The supernatants are subsequently removed (by suction), and the cells are washed once with 1 ml/well of ice-cold phosphate-buffered saline solution (PBS). 250 μl of the ice-cold lysis buffer (50 mM tris/HCl, 1 mM EDTA, 1 mM EGTA, 0.5 mM activated Na3VO4, 10 mM glycerophosphate, 50 mM NaF, 5 mM Na pyrophosphate, 1% Triton X100, 1 mM DTT, 0.1 mM PMSF and 1 μM microcystine and in each case 1 μg/ml of aprotinin, pepstatin or leupeptin) are added to each well. The cells are scraped down from the base of the well, and the cell suspension is sucked up several times with an Eppendorf pipette; the cells are thereby lysed and homogenised. […] The binding of the primary antibody was determined using antisheep IG antibody conjugated to […] peroxidase (1:5000 dilution, Calbiochem), followed by amplified chemiluminescence (SuperSignal West Dura Extended Duration, Pierce). […] The NDRG1 levels are determined after stripping of the nitrocellulose membranes using Restore™ western blot stripping buffer and the Pierce method.
On use of the P-NDRG1 antiserum, a decrease in the phosphorylation level of the NDRG1 protein can easily be detected. The decrease in the intensity of the bands in the western blot on use of the P-NDRG1 antiserum is determined, plotted against the cell culture medium concentration of the SGK1 inhibitor in a semi-logarithmic diagram and used for assessment of the intracellular inhibitor efficacy ([…]) of the SGK1 inhibitor. […]

[2] = molecular target: T1, SGK1; assay: SGK1 protein kinase inhibition (enzyme), filter binding method; assay type: biochemical
Excerpt: Other assays are known from the literature and could readily be performed by the person skilled in the art (see, for example, Dhanabal et al., Cancer Res. 59:189-197; Xin et al., J. Biol. Chem. 274:9116-9121; Sheu et al., Anticancer Res. 18:4435-4441; Ausprunk et al., Dev. Biol. 38:237-248; Gimbrone et al., J. Natl. Cancer Inst. 52:413-427; Nicosia et al., In Vitro 18:538-549). The inhibition of SGK1 protein kinase can be determined in the filter binding method.

Row | melting point [°C] | pIC50 [1] | pIC50 [2] | Structure (SMILES)
1 | 220.7 | < 6.30 | < 8.00 | CCc1c(C(=O)NNC(=O)Cc2cc(F)c(F)cc2OC)ccc(O)c1C [Compound 2, N′-[2-(3,4-Difluoro-6-methoxyphenyl)acetyl]-2-ethyl-4-hydroxy-3-methyl-benzohydrazide]
2 | 217 | > 6.30 | > 8.00 | CCc1c(C(=O)NNC(=O)Cc2cc(F)c(F)c(OC)c2)ccc(O)c1C [Compound 1, N′-[2-(3,4-difluoro-5-methoxyphenyl)acetyl]-2-ethyl-4-hydroxy-3-methyl-benzohydrazide]
3 |  | < 6.30 | < 8.00 | CCc1c(C(=O)NNC(=O)Cc2ccc(F)c(F)c2)ccc(O)c1C [Compound 3, N′-[2-(3,4-Difluorophenyl)acetyl]-2-ethyl-4-hydroxy-3-methylbenzohydrazide]
